From ChEMBL document CHEMBL3046079, “Synthesis, herbicidal activity, and mode of action of IR 5790” (J Agric Food Chem, 2001)
Activity calls are given as the source filed them. The rule behind the calls is not given here.

Experiments:
[1] = test system: Sida spinosa; assay: Post-emergence herbicidal activity against Sida spinosa assessed as injury at 150 g/ha applied at 15 days post-sowing measured after 15 days relative to control; format: functional
[2] = test system: Calystegia sepium; assay: Post-emergence herbicidal activity against Calystegia sepium assessed as injury at 150 g/ha applied at 15 days post-sowing measured after 15 days relative to control; format: functional
[3] = test system: Zea mays; assay: Phytotoxicity against Zea mays (maize) assessed as injury at 150 g/ha applied as post-emergent treatment at 15 days post-sowing measured after 15 days relative to control; format: organism-based; conditions: in vivo, other, 360 h
[4] = test system: Capsella bursa-pastoris; assay: Pre-emergence herbicidal activity against Capsella bursa-pastoris assessed as injury at 50 g/ha applied at 24 hr post-sowing measured after 28 days relative to control; format: functional
[5] = test system: Stellaria media; assay: Post-emergence herbicidal activity against Stellaria media assessed as injury at 15 g/ha applied at 15 days post-sowing measured after 15 days relative to control; format: functional
[6] = test system: Alopecurus myosuroides; assay: Post-emergence herbicidal activity against Alopecurus myosuroides assessed as injury at 50 g/ha applied at 15 days post-sowing measured after 15 days relative to control; format: functional
[7] = test system: Papaver rhoeas; assay: Post-emergence herbicidal activity against Papaver rhoeas assessed as injury at 50 g/ha applied at 15 days post-sowing measured after 15 days relative to control; format: functional
[8] = test system: Veronica persica; assay: Pre-emergence herbicidal activity against Veronica persica assessed as injury at 150 g/ha applied at 24 hr post-sowing measured after 28 days relative to control; format: functional
[9] = target: T1, Putative protoporphyrinogen IX oxidase (Cucumis sativus) (UniProt C6L817); assay: Inhibition of protoporphyrin oxidase in Cucumis sativus (cucumber) cotyledon disc assessed as light-dependent membrane damage at 10 uM incubated for 20 hr in dark followed by 8 hr in presence of light measured as electrolyte leakage relative to control
T1 sequence (whole entry): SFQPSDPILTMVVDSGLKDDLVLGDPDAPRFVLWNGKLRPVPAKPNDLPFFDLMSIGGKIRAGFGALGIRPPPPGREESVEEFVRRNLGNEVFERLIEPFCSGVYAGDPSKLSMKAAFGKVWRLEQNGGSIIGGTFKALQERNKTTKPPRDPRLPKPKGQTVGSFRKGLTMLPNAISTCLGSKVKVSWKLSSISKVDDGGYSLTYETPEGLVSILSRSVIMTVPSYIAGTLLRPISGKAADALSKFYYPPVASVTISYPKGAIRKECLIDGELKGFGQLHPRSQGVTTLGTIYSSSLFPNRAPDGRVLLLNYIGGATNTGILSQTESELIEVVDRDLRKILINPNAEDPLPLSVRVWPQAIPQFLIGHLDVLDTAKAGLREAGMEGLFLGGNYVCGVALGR

[10] = test system: Sorghum bicolor; assay: Post-emergence herbicidal activity against Sorghum bicolor assessed as injury at 50 g/ha applied at 15 days post-sowing measured after 15 days relative to control; format: functional
[11] = test system: Solanum nigrum; assay: Pre-emergence herbicidal activity against Solanum nigrum (black nightshade) assessed as injury at 150 g/ha applied at 24 hr post-sowing measured after 28 days relative to control; format: functional
[12] = test system: Alopecurus myosuroides; assay: Pre-emergence herbicidal activity against Alopecurus myosuroides assessed as injury at 50 g/ha applied at 24 hr post-sowing measured after 28 days relative to control; format: functional
[13] = test system: Abutilon theophrasti; assay: Post-emergence herbicidal activity against Abutilon theophrasti (velvetleaf) assessed as injury at 15 g/ha applied at 15 days post-sowing measured after 15 days relative to control; format: functional
[14] = test system: Setaria viridis; assay: Post-emergence herbicidal activity against Setaria viridis (green foxtail) assessed as injury at 50 g/ha applied at 15 days post-sowing measured after 15 days relative to control; format: functional
[15] = test system: Geranium dissectum; assay: Post-emergence herbicidal activity against Geranium dissectum assessed as injury at 50 g/ha applied at 15 days post-sowing measured after 15 days relative to control; format: functional
[16] = test system: Phalaris arundinacea; assay: Post-emergence herbicidal activity against Phalaris arundinacea assessed as injury at 150 g/ha applied at 15 days post-sowing measured after 15 days relative to control; format: functional
[17] = test system: Calystegia sepium; assay: Pre-emergence herbicidal activity against Calystegia sepium assessed as injury at 150 g/ha applied at 24 hr post-sowing measured after 28 days relative to control; format: functional
[18] = test system: Abutilon theophrasti; assay: Pre-emergence herbicidal activity against Abutilon theophrasti (velvetleaf) assessed as injury at 50 g/ha applied at 24 hr post-sowing measured after 28 days relative to control; format: functional
[19] = test system: Panicum dichotomiflorum; assay: Post-emergence herbicidal activity against Panicum dichotomiflorum assessed as injury at 15 g/ha applied at 15 days post-sowing measured after 15 days relative to control; format: functional
[20] = test system: Sida spinosa; assay: Post-emergence herbicidal activity against Sida spinosa assessed as injury at 50 g/ha applied at 15 days post-sowing measured after 15 days relative to control; format: functional
[21] = test system: Triticum aestivum; assay: Phytotoxicity against Triticum aestivum (wheat) assessed as injury at 150 g/ha applied as post-emergent treatment at 15 days post-sowing measured after 15 days relative to control; format: organism-based; conditions: in vivo, other, 360 h
[22] = test system: Persicaria maculosa; assay: Pre-emergence herbicidal activity against Persicaria maculosa assessed as injury at 150 g/ha applied at 24 hr post-sowing measured after 28 days relative to control; format: functional
[23] = test system: Chenopodium album; assay: Post-emergence herbicidal activity against Chenopodium album assessed as injury at 15 g/ha applied at 15 days post-sowing measured after 15 days relative to control; format: functional
[24] = test system: Oryza sativa; assay: Phytotoxicity against Oryza sativa (rice) assessed as injury at 50 g/ha applied as pre-emergent treatment at 24 hr post-sowing measured after 28 days relative to control; format: organism-based; conditions: in vivo, other, 672 h
[25] = target: T1, Putative protoporphyrinogen IX oxidase (Cucumis sativus); assay: Inhibition of protoporphyrin oxidase in Cucumis sativus (cucumber) cotyledon disc assessed as increase in extraplastidic protoporphyrin 9 accumulation at 10 uM incubated in dim light for 2 hr by HPLC analysis relative to control
[26] = test system: Echinochloa crus-galli; assay: Post-emergence herbicidal activity against Echinochloa crus-galli (barnyard grass) assessed as injury at 150 g/ha applied at 15 days post-sowing measured after 15 days relative to control; format: functional
[27] = test system: Sorghum bicolor; assay: Pre-emergence herbicidal activity against Sorghum bicolor assessed as injury at 50 g/ha applied at 24 hr post-sowing measured after 28 days relative to control; format: functional
[28] = test system: Panicum dichotomiflorum; assay: Pre-emergence herbicidal activity against Panicum dichotomiflorum assessed as injury at 150 g/ha applied at 24 hr post-sowing measured after 28 days relative to control; format: functional
[29] = test system: Stellaria media; assay: Post-emergence herbicidal activity against Stellaria media assessed as injury at 50 g/ha applied at 15 days post-sowing measured after 15 days relative to control; format: functional
[30] = test system: Echinochloa crus-galli; assay: Pre-emergence herbicidal activity against Echinochloa crus-galli (barnyard grass) assessed as injury at 150 g/ha applied at 24 hr post-sowing measured after 28 days relative to control; format: functional
[31] = test system: Setaria viridis; assay: Pre-emergence herbicidal activity against Setaria viridis (green foxtail) assessed as injury at 50 g/ha applied at 24 hr post-sowing measured after 28 days relative to control; format: functional
[32] = test system: Oryza sativa; assay: Phytotoxicity against Oryza sativa (rice) assessed as injury at 150 g/ha applied as pre-emergent treatment at 24 hr post-sowing measured after 28 days relative to control; format: organism-based; conditions: in vivo, other, 672 h

Structure (SMILES): C#CCOc1cc(-n2nc(C(C)(C)C)sc2=O)c(Cl)cc1Cl
- Activity [1]: 70%
- Activity [2]: 90%
- Activity [3]: 0%
- Activity [4]: 70%
- Activity [5]: 0%
- Activity [6]: 30%
- Activity [7]: 0%
- Activity [8]: 50%
- inhibition [9]: Active
- Activity [10]: 0%
- Activity [11]: 70%
- Activity [12]: 10%
- Activity [13]: 30%
- Activity [14]: 10%
- Activity [15]: 50%
- Activity [16]: 30%
- Activity [17]: 0%
- Activity [18]: 0%
- Activity [19]: 0%
- Activity [20]: 50%
- Activity [21]: 50%
- Activity [22]: 50%
- Activity [23]: 70%
- Activity [24]: 0%
- fold change (FC) [25]: 234
- Activity [26]: 10%
- Activity [27]: 0%
- Activity [28]: 90%
- Activity [29]: 0%
- Activity [30]: 70%
- Activity [31]: 30%
- Activity [32]: 0%
